# Measurements: US9840478B2 (MERCK SHARP & DOHME CORP., priority 2013, dated 2017)
# Where two headings read alike, the source gives them in different places.
# Test system: HIV-1 (H9IIIB strain)
# Experiment: Cell-based HIV infection assay using a reporter (Cell-Based), MT4-GFP cells
# Settings: 50% normal human serum, mean of at least two independent experiments, read-out: Cell-based IP
# Procedure, shortened: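 MT4-GFP cells (HIV LTR-driven GFP) infected 24 h with HIV-1 H9IIIB at low MOI, then washed and plated with compounds in RPMI + 50% normal human serum, 0.4% DMSO final. Green cells counted at 24 and 48 h; R0 = 48 h/24 h ratio, inhibition normalized to DMSO and triple-drug control; IC50 from 4-parameter fit.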
# [1] = Human immunodeficiency virus 1, MT4-GFP cells infected with HIV-1 H9IIIB
# [2] = MT4-GFP cells infected with HIV-1 H9IIIB
smiles,measurement,setting,value
"CC(=O)Nc1cccc(S(=O)(=O)N2CCNC[C@@H]2CCc2c(F)cncc2NC(=O)C[C@@H](c2ccc(F)cc2)c2cc(F)cc(F)c2)c1 [Example 320, (3S)-N-(4-{2-[(2S)-1-{[3-(acetylamino)phenyl]sul-fonyl}piperazin-2-yl]ethyl}-5-fluoropyridin-3-yl)-3-(3,5-difluorophenyl)-3-(4-fluorophenyl)propanamide]",IC50,[1],36 nM
"CN(CC(F)(F)F)S(=O)(=O)N1CCNC[C@@H]1CCc1c(F)cccc1NC(=O)[C@@H](N)C(c1ccc(F)cc1)c1ccc(F)cc1 [Example 68, 4-fluoro-N-[3-fluoro-2-(2-{(2S)-1-[methyl(2,2,2-trifluoroethyl)sulfamoyl]piperazin-2-yl}ethyl)phenyl]-β-(4-fluorophenyl)-L-phenylalaninamide]",IC50,[1],1800 nM
"COC(=O)N[C@H](C(=O)Nc1cccc(F)c1CC[C@H]1CNC[C@H](C)N1S(=O)(=O)c1ccccc1)[C@@H](c1ccc(Cl)cc1)C1CCOCC1 [Example 132, (βR)-4-chloro-N-(3-fluoro-2-{2-[(2S,6S)-6-methyl-1-(phenylsulfonyl)piperazin-2-yl]ethyl}phenyl)-Nα-(methoxycarbonyl)-β-(tetrahydro-2H-pyran-4-yl)-L-phenylalaninamide]",IC50,[1],11 nM
"C[C@H]1CNC[C@H](CCc2c(F)cccc2NC(=O)[C@@H](N)[C@@H](c2ccc(Cl)cc2)C2CCOCC2)N1S(=O)(=O)c1ccccc1 [Example 131, (βR)-4-chloro-N-(3-fluoro-2-{2-[(2S,6S)-6-methyl-1-(phenylsulfonyl)piperazin-2-yl]ethyl}phenyl)-β-(tetrahydro-2H-pyran-4-yl)-L-phenylalaninamide]",IC50,[1],17 nM
"COC(=O)N[C@H](C(=O)Nc1cccc(F)c1CC[C@H]1CNCC2(CC2)N1S(=O)(=O)c1ccccc1)[C@@H](c1ccc(Cl)cc1)C1CCOCC1 [Example 369, ((1R,2S)-1-(4-chlorophenyl)-3-((3-fluoro-2-(2-((S)-4-(phenylsulfonyl)-4,7-diazaspiro[2.5]octan-5-yl)ethyl)phenyl)amino)-3-oxo-1-(tetrahydro-2H-pyran-4-yl)propan-2-yl)carbamate]",IC50,[1],11 nM
"COC(=O)N[C@H](C(=O)Nc1cncc(F)c1CC[C@H]1CNC[C@H](C)N1S(C)(=O)=O)[C@@H](c1ccc(F)cc1)c1cc(F)cc(F)c1 [Example 190, (βS)-β-(3,5-difluorophenyl)-4-fluoro-N-(5-fluoro-4-{2-[(2S,6S)-6-methyl-1-(methylsulfonyl)piperazin-2-yl]ethyl}pyridin-3-yl)-Nα-(methoxycarbonyl)-L-phenylalaninamide]",IC50,[1],13 nM
"COC(=O)N[C@H](C(=O)Nc1cccc(F)c1CC[C@H]1CNC[C@H](C)N1S(=O)(=O)C1CC1)[C@@H](c1ccc(Cl)cc1)c1cc(F)cc(F)c1 [Example 201, (βS)-4-chloro-N-(2-{2-[(2S,6S)-1-(cyclopropylsulfonyl)-6-methylpiperazin-2-yl]ethyl}-3-fluorophenyl)-β-(3,5-difluorophenyl)-Nα-(methoxycarbonyl)-L-phenylalaninamide]",IC50,[1],16 nM
"C[C@H]1CNC[C@H](CCc2c(F)cccc2NC(=O)[C@@H](N)C(c2cccc(F)c2)c2cccc(F)c2)N1S(=O)(=O)c1ccccc1 [Example 10, (S)-2-Amino-N-(3-fluoro-2-(2-((2S,6S)-6-methyl-1-(phenylsulfonyl)piperazin-2-yl)ethyl)phenyl)-3,3-bis(3-fluorophenyl)propanamide]",IC50,[1],11 nM
"COC(=O)N[C@H](C(=O)Nc1cccc(F)c1CC[C@H]1CNC[C@@H](C)N1S(=O)(=O)c1ccc(OC(F)(F)F)cc1)[C@@H](c1ccc(F)cc1)c1cc(F)cc(F)c1 [Example 248, (βS)-β-(3,5-difluorophenyl)-4-fluoro-N-(3-fluoro-2-{2-[(2S,6R)-6-methyl-1-{[4-(trifluoromethoxy)phenyl]sulfonyl}piperazin-2-yl]ethyl}phenyl)-Nα-(methoxycarbonyl)-L-phenylalaninamide]",IC50,[1],45 nM
"COC(=O)NC(C(=O)NC1CC1CC[C@H]1CNCCN1S(=O)(=O)c1ccccc1)C(c1ccc(F)cc1)c1ccc(F)cc1 (single isomer, unassigned) [Example 363]",IC50,[2],370 nM
"COCC1CNC[C@H](CCc2c(F)cccc2NC(=O)[C@@H](N)[C@@H](c2ccc(Cl)cc2)C2CCOCC2)N1S(C)(=O)=O (stereo partly drawn) [Example 260, (βR)-4-chloro-N-(3-fluoro-2-{2-[(2S)-6-(methoxymethyl)-1-(methylsulfonyl)piperazin-2-yl]ethyl}phenyl)-β-(tetrahydro-2H-pyran-4-yl)-L-phenylalaninamide]",IC50,[2],140 nM
"O=C(C[C@@H](c1ccc(F)cc1)c1cc(F)cc(F)c1)Nc1cncc(F)c1CC[C@H]1CNCCN1S(=O)(=O)c1cnc2ccccc2c1 [Example 321, (3S)-3-(3,5-difluorophenyl)-3-(4-fluorophenyl)-N-(5-fluoro-4-{2-[(2S)-1-(quinolin-3-ylsulfonyl)piperazin-2-yl]ethyl}pyridin-3-yl)propanamide]",IC50,[1],29 nM
"O=C(CC(c1ccc(F)cc1)c1ccc(F)cc1)Nc1cccc(F)c1CC[C@@H]1CNCCN1S(=O)(=O)c1ccccc1 [Example 61, 3,3-bis(4-fluorophenyl)-N-(3-fluoro-2-{2-[(2R)-1-(phenylsulfonyl)piperazin-2-yl]ethyl}phenyl)propanamide]",IC50,[1],1200 nM
"CC(C)OCC1CNC[C@H](CCc2c(F)cccc2NC(=O)[C@@H](N)[C@@H](c2ccc(F)cc2)c2cc(F)cc(F)c2)N1S(=O)(=O)C1CC1 (stereo partly drawn) [Example 228, (βS)-N-[2-(2-{(2S)-1-(cyclopropylsulfonyl)-6-[(1-methylethoxy)methyl]piperazin-2-yl}ethyl)-3-fluorophenyl]-β-(3,5-difluorophenyl)-4-fluoro-L-phenylalaninamide]",IC50,[2],15 nM
"C[C@@H]1CNC[C@H](CCc2c(F)cccc2NC(=O)[C@@H](N)C2(c3cc(F)cc(F)c3)CCOCC2)N1S(=O)(=O)c1ccccc1 [Example 287, (2S)-2-amino-2-[4-(3,5-difluorophenyl)tetrahydro-2H-pyran-4-yl]-N-(3-fluoro-2-{2-[(2S,6R)-6-methyl-1-(phenylsulfonyl)piperazin-2-yl]ethyl}phenyl)ethanamide]",IC50,[1],91 nM
"C[C@H]1CNC[C@H](CCc2c(F)cccc2NC(=O)[C@@H](N)[C@H](c2cccc(F)c2)c2cccc(Cl)c2)N1S(=O)(=O)C1CC1 [Example 176, (βR)-3-chloro-N-(2-{2-[(2S,6S)-1-(cyclopropylsulfonyl)-6-methylpiperazin-2-yl]ethyl}-3-fluorophenyl)-β-(3-fluorophenyl)-L-phenylalaninamide]",IC50,[1],190 nM
"COC(=O)N[C@H](C(=O)Nc1cncc(F)c1CC[C@H]1CNC[C@H](C)N1S(=O)(=O)c1ccccc1)[C@@H](c1ccc(Cl)cc1)C(C)C [Example 8, Methyl ((2S,3R)-3-(4-chlorophenyl)-1-((5-fluoro-4-(2-((2S,6S)-6-methyl-1-(phenylsulfonyl)piperzin-2-yl)ethyl)pyridin-3-yl)amino)-4-methyl-1-oxopentan-2-yl)carbamate]",IC50,[1],9.8 nM
"COc1ccccc1S(=O)(=O)N1[C@@H](CCc2c(F)cncc2NC(=O)[C@@H](N)[C@@H](c2ccc(F)cc2)c2cc(F)cc(F)c2)CNC[C@@H]1C [Example 235, (βS)-β-(3,5-difluorophenyl)-4-fluoro-N-[5-fluoro-4-(2-{(2S,6S)-1-[(2-methoxyphenyl)sulfonyl]-6-methylpiperazin-2-yl}ethyl)pyridin-3-yl]-L-phenylalaninamide]",IC50,[1],23 nM
"C[C@H]1CNC[C@H](CCc2c(F)cccc2NC(=O)[C@@H](N)[C@@H](c2ccc(F)cc2)C2CCOCC2)N1S(C)(=O)=O [Example 129, (βR)-4-fluoro-N-(3-fluoro-2-{2-[(2S,6S)-6-methyl-1-(methylsulfonyl)piperazin-2-yl]ethyl}phenyl)-β-(tetrahydro-2H-pyran-4-yl)-L-phenylalaninamide]",IC50,[1],210 nM
"C[C@H]1CNC[C@H](CCc2c(F)cncc2NC(=O)[C@@H](N)[C@@H](c2ccc(Cl)cc2)C2CCOCC2)N1S(=O)(=O)c1ccc(Cl)cc1 [Example 273, (βR)-4-chloro-N-[4-(2-{(2S,6S)-1-[(4-chlorophenyl)sulfonyl]-6-methylpiperazin-2-yl}ethyl)-5-fluoropyridin-3-yl]-β-(tetrahydro-2H-pyran-4-yl)-L-phenylalaninamide]",IC50,[1],11 nM
"COC(=O)N[C@H](C(=O)Nc1cccc(F)c1CC[C@H]1CNC[C@H](C)N1S(=O)(=O)c1ccccc1)C(c1cccc(F)c1)c1cccc(F)c1 [Example 100, 3-fluoro-N-(3-fluoro-2-{2-[(2S,6S)-6-methyl-1-(phenylsulfonyl)piperazin-2-yl]ethyl}phenyl)-β-(3-fluorophenyl)-Nα-(methoxycarbonyl)-L-phenylalaninamide]",IC50,[1],30 nM
"COC(=O)N[C@H](C(=O)Nc1cccc(F)c1CC[C@H]1CNC[C@H](C)N1S(=O)(=O)C1CC1)[C@@H](c1cccc(Cl)c1)C(C)C [Example 216, (βR)-3-chloro-N-(2-{2-[(2S,6S)-1-(cyclopropylsulfonyl)-6-methylpiperazin-2-yl]ethyl}-3-fluorophenyl)-Nα-(methoxycarbonyl)-β-(1-methylethyl)-L-phenylalaninamide]",IC50,[1],1300 nM
"N[C@H](C(=O)N[C@@H]1CCCC[C@H]1CC[C@H]1CNCCN1S(=O)(=O)c1ccccc1)C(c1ccc(F)cc1)c1ccc(F)cc1 [Example 353, 4-fluoro-beta-(4-fluorophenyl)-N-[(1R,2S)-2-{2-[(2S)-1-(phenylsulfonyl)piperazin-2-yl]ethyl}cyclohexyl]-L-phenylalaninamide]",IC50,[1],540 nM
"O=C(C[C@@H](c1ccc(Cl)cc1)C1CCS(=O)(=O)CC1)Nc1cccc(F)c1CC[C@H]1CNCCN1S(=O)(=O)c1ccccc1 [Example 36, (3R)-3-(4-chlorophenyl)-3-(1,1-dioxidotetrahydro-2H-thiopyran-4-yl)-N-(3-fluoro-2-{2-[(2S)-1-(phenylsulfonyl)piperazin-2-yl]ethyl}phenyl) propanamide]",IC50,[1],29 nM
